Values of other authors in US12296050B2, “Pharmaceutical compositions comprising maralixibat and uses thereof” (Mirum Pharmaceuticals, Inc., priority 2023, dated 2025).

Target: T1, apical sodium co-dependent bile acid transport (Homo sapiens, UniProt Q12908)
T1 sequence (Q12908 1-348): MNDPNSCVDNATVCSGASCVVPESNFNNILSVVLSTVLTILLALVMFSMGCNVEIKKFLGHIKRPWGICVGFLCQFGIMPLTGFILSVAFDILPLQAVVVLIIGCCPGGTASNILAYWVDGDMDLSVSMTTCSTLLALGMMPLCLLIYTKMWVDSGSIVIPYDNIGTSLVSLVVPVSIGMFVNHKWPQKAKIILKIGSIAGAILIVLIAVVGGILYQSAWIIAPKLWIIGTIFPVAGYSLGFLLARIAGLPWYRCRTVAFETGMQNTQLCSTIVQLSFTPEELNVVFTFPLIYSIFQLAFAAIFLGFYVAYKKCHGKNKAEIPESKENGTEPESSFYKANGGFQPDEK
Conditions: known from U.S. Pat. No. 5,994,391

## CCCCC1(CCCC)CS(=O)(=O)c2ccc(N(C)C)cc2[C@@H](c2ccc(OCc3ccc(C[N+]45CCN(CC4)CC5)cc3)cc2)[C@H]1O.[Cl-] [maralixibat chloride]
  Effect on apical sodium co-dependent bile acid transport, in words: inhibits
